Like-named read-outs stand apart in the source and are kept apart here.
Key:
[1] = for Radioactivity Uptake, Bone: Bone (non-organ); for Radioactivity Uptake, Fat: Fat (non-organ); for Radioactivity Uptake, Muscle: Muscle (non-organ); for Radioactivity Uptake, Urine: Urine (non-organ)
Procedure: Rats (n=3) were sacrificed at 1, 3, 5, 10, 30 and 60 min after injection and the distribution of radioactivity in different tissues was determined by gamma well counting with an energy window of 140±15 keV. The biodistribution data is expressed in terms of percentage injected dosage per gram (% ID/g) with mean±standard deviation. Urine samples were collected from the bladder at 30 min after injection, and were analyzed by radioHPLC to determine the presence of metabolic derivatives of the radiotracer. […] Specifically, anterior planar whole-body dynamic images were acquired on an XRT gamma camera (General Electric) using a high-resolution medium energy parallel-hole collimator at one frame per minute for 60 min, with 512×512 matrix, and an energy window of 140±15 keV.

[2] = Comparative study: myocardial and hepatic uptake of 99mTc-MIBI versus 99mTc-Mito10-MAG3; type: in vivo, rats; details: rats
Procedure: ^99mTc-MIBI of clinical formulation was purchased from Bristol Myers Squibb. […] Dynamic images were acquired in identical fashion following 99mTc-MIBI injection.
In a comparative study, the myocardial uptake of ^99mTc-MIBI peaked at 2.70±0.4% ID/g within minutes after injection, and remained above 2.41±0.3% ID/g for at least 90 min. Comparatively, the myocardial uptake level of ^99mTc-Mito10-MAG 3 is 10, 40, and 120 fold lower than the uptake level of ^99mTc-MIBI at 3, 10 and 30 min after injection. The hepatic uptake of ^99mTc-MIBI was at 0.37±0.14% ID/g at 30 min after injection.

For `CC(=O)[S+]1CC(=O)[N]2CC(=O)[N]3CC(=O)[N](CC(=O)NCCCCCCCCCC[P+](c4ccccc4)(c4ccccc4)c4ccccc4)[99Tc]321=[O].[Br-]` (stereo not drawn) [^99mTc-Mito10-MAG3], the “Radioactivity Uptake, Bone” value ([1]; 1 min after injection, rats) was 0.12 ± 0.05 % ID/g, the “Radioactivity Uptake, Bone” value ([1]; 3 min after injection, rats) was 0.05 ± 0.01 % ID/g and the “Radioactivity Uptake, Bone” value ([1]; 5 min after injection, rats) was 0.02 ± 0.24 % ID/g. The “Radioactivity Uptake, Bone” value ([1]; 10 min after injection, rats) was 0.04 ± 0.03 % ID/g, the “Radioactivity Uptake, Bone” value ([1]; 30 min after injection, rats) was 0.01 ± 0.01 % ID/g and the “Radioactivity Uptake, Bone” value ([1]; 60 min after injection, rats) was 0.00 ± 0.00 % ID/g. The “Radioactivity Uptake, Brain” value ([1]; 1 min after injection, rats) was 0.04 ± 0.03 % ID/g, the “Radioactivity Uptake, Brain” value ([1]; 3 min after injection, rats) was 0.02 ± 0.01 % ID/g and the “Radioactivity Uptake, Brain” value ([1]; 5 min after injection, rats) was 0.04 ± 0.03 % ID/g. The “Radioactivity Uptake, Brain” value ([1]; 10 min after injection, rats) was 0.01 ± 0.00 % ID/g, the “Radioactivity Uptake, Brain” value ([1]; 30 min after injection, rats) was 0.01 ± 0.01 % ID/g and the “Radioactivity Uptake, Brain” value ([1]; 60 min after injection, rats) was 0.00 ± 0.00 % ID/g. For the same molecule, the “Radioactivity Uptake, Colon” value ([1]; 1 min after injection, rats) was 0.09 ± 0.04 % ID/g, the “Radioactivity Uptake, Colon” value ([1]; 3 min after injection, rats) was 0.08 ± 0.03 % ID/g and the “Radioactivity Uptake, Colon” value ([1]; 5 min after injection, rats) was 0.02 ± 0.01 % ID/g. The “Radioactivity Uptake, Colon” value ([1]; 10 min after injection, rats) was 0.03 ± 0.01 % ID/g, the “Radioactivity Uptake, Colon” value ([1]; 30 min after injection, rats) was 0.04 ± 0.03 % ID/g and the “Radioactivity Uptake, Colon” value ([1]; 60 min after injection, rats) was 0.01 ± 0.00 % ID/g. The “Radioactivity Uptake, Fat” value ([1]; 1 min after injection, rats) was 0.04 ± 0.02 % ID/g, the “Radioactivity Uptake, Fat” value ([1]; 3 min after injection, rats) was 0.06 ± 0.01 % ID/g and the “Radioactivity Uptake, Fat” value ([1]; 5 min after injection, rats) was 0.07 ± 0.05 % ID/g. The “Radioactivity Uptake, Fat” value ([1]; 10 min after injection, rats) was 0.07 ± 0.03 % ID/g, the “Radioactivity Uptake, Fat” value ([1]; 30 min after injection, rats) was 0.01 ± 0.00 % ID/g and the “Radioactivity Uptake, Fat” value ([1]; 60 min after injection, rats) was 0.00 ± 0.00 % ID/g. The “Radioactivity Uptake, Heart” value ([1]; 1 min after injection, rats) was 0.20 ± 0.08 % ID/g, the “Radioactivity Uptake, Heart” value ([1]; 3 min after injection, rats) was 0.27±0.04 % ID/g and the “Radioactivity Uptake, Heart” value ([1]; 5 min after injection, rats) was 0.18 ± 0.07 % ID/g. The “Radioactivity Uptake, Heart” value ([1]; 10 min after injection, rats) was 0.06±0.01 % ID/g, the “Radioactivity Uptake, Heart” value ([1]; 30 min after injection, rats) was 0.02±0.02 % ID/g and the “Radioactivity Uptake, Heart” value ([1]; 60 min after injection, rats) was 0.01 ± 0.00 % ID/g. For the same molecule, the “Radioactivity Uptake, Kidneys” value ([1]; 1 min after injection, rats) was 2.30 ± 0.55 % ID/g, the “Radioactivity Uptake, Kidneys” value ([1]; 3 min after injection, rats) was 3.69 ± 0.92 % ID/g and the “Radioactivity Uptake, Kidneys” value ([1]; 5 min after injection, rats) was 3.06 ± 1.41 % ID/g. For the same molecule, the “Radioactivity Uptake, Kidneys” value ([1]; 10 min after injection, rats) was 1.79 ± 0.39 % ID/g, the “Radioactivity Uptake, Kidneys” value ([1]; 30 min after injection, rats) was 1.40 ± 0.96 % ID/g and the “Radioactivity Uptake, Kidneys” value ([1]; 60 min after injection, rats) was 0.75 ± 0.59 % ID/g. For the same molecule, the “Radioactivity Uptake, Liver” value ([1]; 1 min after injection, rats) was 3.23±1.10 % ID/g, the “Radioactivity Uptake, Liver” value ([1]; 3 min after injection, rats) was 2.41 ± 1.12 % ID/g and the “Radioactivity Uptake, Liver” value ([1]; 5 min after injection, rats) was 1.50 ± 0.84 % ID/g. For the same molecule, the “Radioactivity Uptake, Liver” value ([1]; 10 min after injection, rats) was 0.89 ± 0.30 % ID/g, the “Radioactivity Uptake, Liver” value ([1]; 30 min after injection, rats) was 0.32±0.02 % ID/g and the “Radioactivity Uptake, Liver” value ([1]; 60 min after injection, rats) was 0.21 ± 0.07 % ID/g. The “Radioactivity Uptake, Lung” value ([1]; 1 min after injection, rats) was 0.82 ± 1.05 % ID/g, the “Radioactivity Uptake, Lung” value ([1]; 3 min after injection, rats) was 0.31 ± 0.14 % ID/g and the “Radioactivity Uptake, Lung” value ([1]; 5 min after injection, rats) was 0.48 ± 0.43 % ID/g. The “Radioactivity Uptake, Lung” value ([1]; 10 min after injection, rats) was 0.23 ± 0.24 % ID/g, the “Radioactivity Uptake, Lung” value ([1]; 30 min after injection, rats) was 0.05 ± 0.01 % ID/g and the “Radioactivity Uptake, Lung” value ([1]; 60 min after injection, rats) was 0.03 ± 0.01 % ID/g. The “Radioactivity Uptake, Muscle” value ([1]; 1 min after injection, rats) was 0.05 ± 0.02 % ID/g, the “Radioactivity Uptake, Muscle” value ([1]; 3 min after injection, rats) was 0.03 ± 0.01 % ID/g and the “Radioactivity Uptake, Muscle” value ([1]; 5 min after injection, rats) was 0.06 ± 0.01 % ID/g. The “Radioactivity Uptake, Muscle” value ([1]; 10 min after injection, rats) was 0.06 ± 0.01 % ID/g, the “Radioactivity Uptake, Muscle” value ([1]; 30 min after injection, rats) was 0.02 ± 0.01 % ID/g and the “Radioactivity Uptake, Muscle” value ([1]; 60 min after injection, rats) was 0.01 ± 0.00 % ID/g. The “Radioactivity Uptake, Pancreas” value ([1]; 1 min after injection, rats) was 0.32 ± 0.22 % ID/g, the “Radioactivity Uptake, Pancreas” value ([1]; 3 min after injection, rats) was 0.27 ± 0.12 % ID/g and the “Radioactivity Uptake, Pancreas” value ([1]; 5 min after injection, rats) was 0.20 ± 0.17 % ID/g. The “Radioactivity Uptake, Pancreas” value ([1]; 10 min after injection, rats) was 0.12 ± 0.04 % ID/g, the “Radioactivity Uptake, Pancreas” value ([1]; 30 min after injection, rats) was 0.01 ± 0.00 % ID/g and the “Radioactivity Uptake, Pancreas” value ([1]; 60 min after injection, rats) was 0.02 ± 0.01 % ID/g. For the same molecule, the “Radioactivity Uptake, Skin” value ([1]; 1 min after injection, rats) was 0.07 ± 0.03 % ID/g, the “Radioactivity Uptake, Skin” value ([1]; 3 min after injection, rats) was 0.10 ± 0.04 % ID/g and the “Radioactivity Uptake, Skin” value ([1]; 5 min after injection, rats) was 0.12 ± 0.08 % ID/g. For the same molecule, the “Radioactivity Uptake, Skin” value ([1]; 10 min after injection, rats) was 0.05 ± 0.04 % ID/g, the “Radioactivity Uptake, Skin” value ([1]; 30 min after injection, rats) was 0.04 ± 0.03 % ID/g and the “Radioactivity Uptake, Skin” value ([1]; 60 min after injection, rats) was 0.02 ± 0.01 % ID/g. The “Radioactivity Uptake, Small Intestine” value ([1]; 1 min after injection, rats) was 0.18 ± 0.04 % ID/g, the “Radioactivity Uptake, Small Intestine” value ([1]; 3 min after injection, rats) was 0.67 ± 0.30 % ID/g and the “Radioactivity Uptake, Small Intestine” value ([1]; 5 min after injection, rats) was 0.48 ± 0.14 % ID/g. The “Radioactivity Uptake, Small Intestine” value ([1]; 10 min after injection, rats) was 0.50 ± 0.19 % ID/g, the “Radioactivity Uptake, Small Intestine” value ([1]; 30 min after injection, rats) was 0.52 ± 0.20 % ID/g and the “Radioactivity Uptake, Small Intestine” value ([1]; 60 min after injection, rats) was 0.36 ± 0.41 % ID/g. For the same molecule, the “Radioactivity Uptake, Spleen” value ([1]; 1 min after injection, rats) was 0.27 ± 0.12 % ID/g, the “Radioactivity Uptake, Spleen” value ([1]; 3 min after injection, rats) was 0.25 ± 0.17 % ID/g and the “Radioactivity Uptake, Spleen” value ([1]; 5 min after injection, rats) was 0.20 ± 0.08 % ID/g. The “Radioactivity Uptake, Spleen” value ([1]; 10 min after injection, rats) was 0.09 ± 0.04 % ID/g, the “Radioactivity Uptake, Spleen” value ([1]; 30 min after injection, rats) was 0.02 ± 0.02 % ID/g and the “Radioactivity Uptake, Spleen” value ([1]; 60 min after injection, rats) was 0.02 ± 0.01 % ID/g. The “Radioactivity Uptake, Stomach” value ([1]; 1 min after injection, rats) was 0.26 ± 0.04 % ID/g, the “Radioactivity Uptake, Stomach” value ([1]; 3 min after injection, rats) was 0.32 ± 0.12 % ID/g and the “Radioactivity Uptake, Stomach” value ([1]; 5 min after injection, rats) was 0.25 ± 0.26 % ID/g. The “Radioactivity Uptake, Stomach” value ([1]; 10 min after injection, rats) was 0.30 ± 0.24 % ID/g, the “Radioactivity Uptake, Stomach” value ([1]; 30 min after injection, rats) was 0.57 ± 0.41 % ID/g and the “Radioactivity Uptake, Stomach” value ([1]; 60 min after injection, rats) was 0.04 ± 0.05 % ID/g. The “Radioactivity Uptake, Thymus” value ([1]; 1 min after injection, rats) was 006 ± 0.02 % ID/g, the “Radioactivity Uptake, Thymus” value ([1]; 3 min after injection, rats) was 0.12 ± 0.04 % ID/g and the “Radioactivity Uptake, Thymus” value ([1]; 5 min after injection, rats) was 0.07 ± 0.01 % ID/g. For the same molecule, the “Radioactivity Uptake, Thymus” value ([1]; 10 min after injection, rats) was 0.04 ± 0.03 % ID/g, the “Radioactivity Uptake, Thymus” value ([1]; 30 min after injection, rats) was 0.01 ± 0.00 % ID/g and the “Radioactivity Uptake, Thymus” value ([1]; 60 min after injection, rats) was 0.01 ± 0.00 % ID/g. The “Radioactivity Uptake, Thyroid” value ([1]; 1 min after injection, rats) was 0.30 ± 0.13 % ID/g, the “Radioactivity Uptake, Thyroid” value ([1]; 3 min after injection, rats) was 0.33 ± 0.07 % ID/g and the “Radioactivity Uptake, Thyroid” value ([1]; 5 min after injection, rats) was 0.27 ± 0.11 % ID/g. For the same molecule, the “Radioactivity Uptake, Thyroid” value ([1]; 10 min after injection, rats) was 0.11 ± 0.04 % ID/g, the “Radioactivity Uptake, Thyroid” value ([1]; 30 min after injection, rats) was 0.02 ± 0.02 % ID/g and the “Radioactivity Uptake, Thyroid” value ([1]; 60 min after injection, rats) was 0.01 ± 0.00 % ID/g. The “Radioactivity Uptake, Urine” value ([1]; 1 min after injection, rats) was 0.05 ± 0.05 % ID/g, the “Radioactivity Uptake, Urine” value ([1]; 3 min after injection, rats) was 0.76 ± 0.56 % ID/g and the “Radioactivity Uptake, Urine” value ([1]; 5 min after injection, rats) was 0.68 ± 0.03 % ID/g. The “Radioactivity Uptake, Urine” value ([1]; 10 min after injection, rats) was 2.35 ± 2.63 % ID/g, the “Radioactivity Uptake, Urine” value ([1]; 30 min after injection, rats) was 8.83 ± 8.50 % ID/g and the “Radioactivity Uptake, Urine” value ([1]; 60 min after injection, rats) was 10.85 ± 12.48 % ID/g. For the same molecule, the “time for hepatic signal to decline to sufficiently low level” value ([1]; liver, after injection) was ≤ 30 min, the blood half-life ([1]; rats, intravenous injection, estimated) was “less than 2 min” and the “reduction of uptake in the myocardium compared to 99mTc-MIBI” value [2] was “one to two orders of magnitude”.

Reference: patent US8388931B2, “99m Tc-labeled triphenylphosphonium derivative contrasting agents and molecular probes for early detection and imaging of breast tumors” (priority 2008, dated 2013)
